These results are taken from patent US3959468A, “Antibiotic equisetin and method of production” (The United States of America as represented by the …, priority 1974, dated 1976).

One series concerns fungi. Description: Minimum inhibitory concentration, agar streak test on TGY agar (fungi). The format is cell-based. The settings on record: tested fungi; room temperature; read-out: no inhibition at levels up to. Here is the method: (§1) Minimum inhibitory concentrations for microorganisms. The F. equiseti NRRL 5537 antibiotic was diluted in ethanol. Streptomycin sulfate and isoniazid were diluted in water. Amounts up to 1 ml. were added to TGY agar to provide the desired double dilution test concentrations. Minimum inhibitory concentrations of the antimicrobial agents were determined by streaking a loopful of standardized suspensions of 24- to 48-hr. cultures of selected microorganisms onto the surface of 20 ml. of the modified TGY agar in a standard petri dish. Microorganisms were cultured on TGY agar slants and diluted with TGY broth to yield a transmittance of about 90% at 600 nm. in a Spectronic-20 spectrophotometer. All cultures grew on control plates containing 1 ml. ethanol per 100 ml. TGY agar. Bacteria were incubated at 37° C. and the fungi at room temperature.

In a further series the test system is M. smegmatis. Description: Minimum inhibitory concentration, agar streak test on TGY agar (M. smegmatis). Format: cell-based. The settings on record: Mycolicibacterium smegmatis, NRRLB612, NRRL B-612, 37° C., 24 and 48 hr., read-out: Antimicrobial agent MIC. As for the experimental part: as §1
The subject of a further series is Bacillus subtilis. Description: Minimum inhibitory concentration, agar streak test on TGY agar (B. subtilis). Format: cell-based. As for the experimental part:
as §1

The subject of the next series is Mycobacterium phlei. Description: Minimum inhibitory concentration, agar streak test on TGY agar (M. phlei). The format is cell-based. The following applies: Mycolicibacterium phlei. Here is the method:
as §1

The next series in a line: physchem. The format is physicochemical. Here is the method:
Melting points (uncorrected) were determined with a Fisher-Johns apparatus. Infrared spectra were obtained on a Beckman Model 1R-8 spectrophotometer from films deposited on KRS-5 plates (Wilks, Inc.) or from solutions in a 1-mm. sodium chloride cell. Mass spectra were obtained on a Nuclide high-resolution instrument Model 12-90G. Ultraviolet spectra were recorded from a Beckman DG-G with the absolute ethanol solutions of antibiotic at 25 μg./ml. Elemental analysis was carried out in a Perkin-Elmer CHN analyzer 240. Solubilities were measured by the procedure of Shriner et al. [The Systematic Identification of Organic Compounds. A Laboratory Manual, John Wiley and Sons., Inc., New York].

For another series, the system named is Staphylococcus aureus. Description: Minimum inhibitory concentration, agar streak test on TGY agar (S. aureus). Format: cell-based. Here is the method:
as §1

Another series deals with Neisseria perflava. Description: Minimum inhibitory concentration, agar streak test on TGY agar (N. perflava). Format: cell-based. The settings on record: 37° C., 24 and 48 hr., read-out: Antimicrobial agent MIC. Here is the method: as §1
The test system of another series is mice. Description: in vivo. The arrangement: species or system Swiss-Webster female mice. The settings on record: for r (Weil's procedure notation): n = 6, Da = 25 mg./kg. Here is the method:
(§2) Animal toxicity. Chromatographically pure antibiotic was dissolved in warm propylene glycol and injected intraperitoneally into 25 g. Swiss-Webster female mice. The LD50 dose was calculated by Weil's procedure (supra) with the following notation: K = 3; n = 6; r = 0, 1, 6, 6; d = 0.3010; and Da = 25 mg./kg. body weight.

The nature of a further series: in vivo. The arrangement: species or system Swiss-Webster female mice. The following applies: mouse, in vivo, ip; intraperitoneal, propylene glycol, 25 g. Swiss-Webster female mice; read-out: intraperitoneal LD50 dose. Here is the method:
as §2

For another series, the system named is gram-negative bacteria. Description: Minimum inhibitory concentration, agar streak test on TGY agar (other gram-negative bacteria). The format is cell-based. The following applies: Neisseria perflava; tested gram-negative bacteria other than N. perflava; read-out: no inhibition at levels up to. Here is the method: as §1
In series [1] the test system is some gram-positive bacteria and N. perflava. Description: Comparison of MIC of equisetin with streptomycin and isoniazid. The format is cell-based. The following applies: in vitro, tested bacteria. As for the experimental part: as §1
Another series concerns M. rhodochrus. Description: Minimum inhibitory concentration, agar streak test on TGY agar (M. rhodochrus). The format is cell-based. The settings on record: NRRL B-2141, 37° C., 24 and 48 hr., read-out: Antimicrobial agent MIC. Here is the method: as §1
The format of series [2] is physicochemical. The settings on record: for degradation peak, share of the sample: short columns (2 ft.). As for the experimental part: Gas-liquid chromatography of F. equiseti NRRL 5537 preparations was carried out on a Bendix Model 2500 chromatograph equipped with on-column flame ionization detectors. Retention times of the antibiotic and its degradation product were determined on glass columns (2 ft. × 2 mm. and 6 ft. × 2 mm.) packed with SE-30 (3%) on Supelcon AW-DMCS (Supelco, Inc.). Operating parameters were: temperature, 180° or 190° C. isothermally for 2-ft. columns and programmed from 180° to 220° C. at 5° C./min. for 6-ft. columns; carrier gas, nitrogen (40 ml./min.); hydrogen (20 ml./min.); air (400 ml./min.); injection ports and detectors, 250° C. Samples were dissolved in absolute ethanol (10 mg./ml.), and 2 μl. were used for analyses. Peak areas and retention times were obtained with a Hewlett/Packard Model 3370 B integrator.

The test system of a further series is bacteria. The following applies: cited from earlier work.
Setting [3] is: seven strains, read-out: concentration at which strains were inhibited.
The mark [4] stands for this setting: 100 or 200 mg./kg. intraperitoneal.

In brackets after ≈: the same amount, converted by molar mass. Like-named read-outs stand apart in the source and are kept apart here.

Consider `CC=CC1C=CC2CC(C)CCC2C1(C)C(O)=C1C(=O)C(CO)N(C)C1=O` (centres unmarked) [equisetin], for which the MIC is over 128 µg/mL in the series on fungi; 8 µg/mL (≈ 0.0214 mM) in the series on M. smegmatis; 0.5 µg/mL (≈ 0.00134 mM) with Bacillus subtilis (NRRLB543, NRRL B-543, TGY agar, 37° C., 24 and 48 hr., read-out: Antimicrobial agent MIC); 0.5 µg/mL (≈ 0.00134 mM) in the series with Bacillus subtilis (NRRLB558, NRRL B-558, TGY agar, 37° C., 24 and 48 hr., read-out: Antimicrobial agent MIC); 0.5 µg/mL (≈ 0.00134 mM) with Bacillus subtilis (NRRLB644, NRRL B-644, TGY agar, 37° C., 24 and 48 hr., read-out: Antimicrobial agent MIC); 0.5 µg/mL (≈ 0.00134 mM) in the series with Bacillus subtilis (NRRLB765, NRRL B-765, TGY agar, 37° C., 24 and 48 hr., read-out: Antimicrobial agent MIC). In addition, the MIC with Bacillus subtilis (NRRLB972, NRRL B-972, TGY agar, 37° C., 24 and 48 hr., read-out: Antimicrobial agent MIC) is 0.5 µg/mL (≈ 0.00134 mM); in the series with Bacillus subtilis (NRRLB1650, NRRL B-1650, TGY agar, 37° C., 24 and 48 hr., read-out: Antimicrobial agent MIC), 1 µg/mL (≈ 0.00268 mM); with Bacillus subtilis (NRRLB3284, NRRL B-3284, TGY agar, 37° C., 24 and 48 hr., read-out: Antimicrobial agent MIC), 1 µg/mL (≈ 0.00268 mM); in the series with Bacillus subtilis (setting [3]), at most 1 µg/mL; in the series with Mycobacterium phlei (NRRLB609, NRRL B-609, TGY agar, 37° C., 24 and 48 hr., read-out: Antimicrobial agent MIC), 1 µg/mL (≈ 0.00268 mM); with Mycobacterium phlei (NRRLB610, NRRL B-610, TGY agar, 37° C., 24 and 48 hr., read-out: Antimicrobial agent MIC), 1 µg/mL (≈ 0.00268 mM). Further, the MIC with Mycobacterium phlei (NRRLB4051, NRRL B-4051, TGY agar, 37° C., 24 and 48 hr., read-out: Antimicrobial agent MIC) is 2 µg/mL (≈ 0.00535 mM); in the series with Mycobacterium phlei (two of three strains, read-out: concentration at which strains were inhibited) it was at most 1 µg/mL; in the series on Staphylococcus aureus (NRRLB120, NRRL B-120, TGY agar, 37° C., 24 and 48 hr., read-out: Antimicrobial agent MIC), 1 µg/mL (≈ 0.00268 mM); in the series on Staphylococcus aureus (NRRLB124, NRRL B-124, TGY agar, 37° C., 24 and 48 hr., read-out: Antimicrobial agent MIC), 1 µg/mL (≈ 0.00268 mM); with Staphylococcus aureus (NRRLB313, NRRL B-313, TGY agar, 37° C., 24 and 48 hr., read-out: Antimicrobial agent MIC), 0.5 µg/mL (≈ 0.00134 mM); in the series on Staphylococcus aureus (NRRLB678, NRRL B-678, TGY agar, 37° C., 24 and 48 hr., read-out: Antimicrobial agent MIC), 1 µg/mL (≈ 0.00268 mM). Also, the MIC is 1 µg/mL (≈ 0.00268 mM) with Staphylococcus aureus (NRRLB1317, NRRL B-1317, TGY agar, 37° C., 24 and 48 hr., read-out: Antimicrobial agent MIC); 1 µg/mL (≈ 0.00268 mM) with Staphylococcus aureus (NRRLB1318, NRRL B-1318, TGY agar, 37° C., 24 and 48 hr., read-out: Antimicrobial agent MIC); 1 µg/mL (≈ 0.00268 mM) with Staphylococcus aureus (NRRLB2746, NRRL B-2746, TGY agar, 37° C., 24 and 48 hr., read-out: Antimicrobial agent MIC); at most 1 µg/mL in the series on Staphylococcus aureus (setting [3]); 2 µg/mL (≈ 0.00535 mM) with Neisseria perflava (NRRLB1458, NRRL B-1458, TGY agar); 2 µg/mL (≈ 0.00535 mM) in the series with Neisseria perflava (NRRLB1788, NRRL B-1788, TGY agar). Moreover, the MIC in the series on Neisseria perflava (NRRLB1789, NRRL B-1789, TGY agar) was 4 µg/mL (≈ 0.0107 mM); with Neisseria perflava (NRRLB1790, NRRL B-1790, TGY agar) it was 1 µg/mL (≈ 0.00268 mM); in the series with Neisseria perflava (NRRLB1791, NRRL B-1791, TGY agar) it was 4 µg/mL (≈ 0.0107 mM); with gram-negative bacteria, over 128 µg/mL; in the series with M. rhodochrus, 0.5 µg/mL (≈ 0.00134 mM). Besides, the solubility in “physchem” (acetone, organic solvent or mixture, read-out: solubility in acetone) is over 660 mg/mL; in the series “physchem” (ethanol, organic solvent or mixture, read-out: solubility in ethanol), over 330 mg/mL; in “physchem” (methanol, organic solvent or mixture, read-out: solubility in methanol) it was over 220 mg/mL; in “physchem” (organic solvent or mixture, hexane, insoluble, read-out: solubility in hexane) it was under 0.8 mg/mL; in the series “physchem” (water, insoluble, read-out: solubility in water) it was under 0.3 mg/mL. Also, the “visible ill effects in surviving mice” value in the series with mice (25- or 50-mg./kg. doses intraperitoneal, 4 wk. of observation) is on record as “no visible ill effects”. Also, in the series with mice (setting [4]), the condition of mice result is “lethargic”. For the same molecule, the “mortalities continued for, post-injection” value in the series on mice (setting [4]) amounted to 4 da. Besides, in the series on mice (setting [4]), the time of death result is given as “death did not occur before the second day after treatment”. Besides, the “r (Weil's procedure notation)” value in the series with mice (first r, d = 0.3010 (25 mg./kg.)) came to 0; in the series on mice (fourth r, d = 0.3010 (200 mg./kg.)), 6; in the series on mice (second r, d = 0.3010 (50 mg./kg.)) it was 1; with mice (third r, d = 0.3010 (100 mg./kg.)), 6. The lethal action result in the series on mice (intraperitoneal, mice) is “Lethal action was slow”. The LD50 in the series “in vivo” was 63 mg/kg. For the same molecule, the “comparison of minimum inhibitory concentrations with streptomycin and isoniazid” value in series [1] is “a lower concentration of equisetin were required for the in vitro inhibition of the tested bacteria than was required for inhibition by streptomycin or isoniazid”. Further, in series [2] (6-ft. columns, 220° C.), the “antibiotic converted to the degradation product” value is “almost half”. In addition, the figures for the “degradation peak, share of the sample” value in series [2] (180° C.) and in [2] (190° C.) were 3% and 6-8%, respectively.
`C[C@H]1CCCC(=O)CCC/C=C/c2cc(O)cc(O)c2C(=O)O1` [zearalenone]: the antibacterial properties entry with bacteria is “either lack or only exhibit weak antibacterial properties”.
Turning to fusariogenin, the antibacterial properties result in the series with bacteria is “either lack or only exhibit weak antibacterial properties”.
